Source: patent US11167007B2, “FOXM1 modulators and uses thereof” (City of Hope, priority 2016, dated 2021)
Entries after “also recorded” stand apart in the source; their conditions may differ.

Columns and labels:
[1] = system: AR; assay: Androgen-responsive luciferase reporter assay in GT1-7 cells; type: cell-based, murine; conditions: for Fold Difference: GT1-7 luciferase; for inhibition of AR transcriptional activity (luciferase): GT1-7 cells, treated overnight, FIG. 2A
Procedure: Luciferase Reporter Assay. […] The following day, cells and drugs were distributed to 96-well plates. 24 hours later, luciferase activity was assessed by a dual luciferase assay kit (Promega) on the Tecan plate reader. Samples were run in quadruplicates and a Student's t test was performed to determine significance, where p<0.05 was considered significant.
In order to identify potential cell-type selective AR modulators, the FRET-based assay of AR conformation change was utilized. AR signaling is a complex process involving many steps in addition to ligand binding. One crucial step is the ligand-induced conformational change of AR, which brings the carboxy (C)- and amino (N)-termini of the receptor together. Full length AR with cyan fluorescent protein (CFP) or yellow fluorescent protein (YFP) fused to either end (CARY) produces a FRET signal upon AR conformation change (FIG. 1A). This produces an accurate and quantifiable read-out of AR activity. […] Cells were plated in 96 wells and treated with library compounds 24 hours prior to accessing conformational changes by FRET. […] Candidate hits were then further evaluated by dose response. […] In addition to FRET, AR transcriptional activity was also assessed in several cell lines by transfecting cells with a luciferase reporter driven by the human PSA promoter.

[2] = system: AR; assay: Androgen-responsive luciferase reporter assay in C2C12 cells; type: cell-based, murine; conditions: treated overnight, FIG. 2A
Source text: Luciferase Reporter Assay. Cells were transfected using Lipofectamine Plus (Invitrogen) with a normalization plasmid (pRL-SV40, Promega) and an androgen responsive plasmid (MMTV-luciferase or PSA-luciferase) as described in Jones et al, ACS Chem Biol, 3(7):412-8 (2008), and, where indicated, with an shRNA plasmid targeting FOXM1 (adapted for mouse FOXM1 sequence targeting) a scrambled control shRNA plasmid, or ARQ24 or ARQ65 plasmids. Christensen et al, PLoS One, 8(1):e54556 (2013). The following day, cells and drugs were distributed to 96-well plates. 24 hours later, luciferase activity was assessed by a dual luciferase assay kit (Promega) on the Tecan plate reader. Samples were run in quadruplicates and a Student's t test was performed to determine significance, where p<0.05 was considered significant.
In order to identify potential cell-type selective AR modulators, the FRET-based assay of AR conformation change was utilized. AR signaling is a complex process involving many steps in addition to ligand binding. One crucial step is the ligand-induced conformational change of AR, which brings the carboxy (C)- and amino (N)-termini of the receptor together. Full length AR with cyan fluorescent protein (CFP) or yellow fluorescent protein (YFP) fused to either end (CARY) produces a FRET signal upon AR conformation change (FIG. 1A). This produces an accurate and quantifiable read-out of AR activity. Jones et al, ACS Chem Biol, 3(7):412-8 (2008). Because the interest was in the potential of neuron selective AR inhibitors for treatment of SBMA, the initial screen was carried out in CARY-transfected GT1-7 cells, which are a mouse model of hypothalamic neurons. Liposits et al, Endocrinology, 129(3):1575-83 (1991). Cells were plated in 96 wells and treated with library compounds 24 hours prior to accessing conformational changes by FRET. […] Candidate hits were then further evaluated by dose response. […] In addition to FRET, AR transcriptional activity was also assessed in several cell lines by transfecting cells with a luciferase reporter driven by the human PSA promoter. […]

SMILES: C=C(NC(=O)C(=C)NC(=O)c1csc(C2=N[C@@H]3c4csc(n4)[C@H]4NC(=O)c5csc(n5)[C@H]([C@](C)(O)[C@@H](C)O)NC(=O)[C@H]5CSC(=N5)/C(=C/C)NC(=O)[C@H]([C@@H](C)O)NC(=O)c5csc(n5)[C@]3(CC2)NC(=O)[C@H](C)NC(=O)C(=C)NC(=O)[C@H](C)NC(=O)[C@H]([C@@H](C)CC)N[C@@H]2C=Cc3c([C@H](C)O)cc(nc3[C@H]2O)C(=O)O[C@@H]4C)n1)C(N)=O [thiostrepton]
- Fold Difference ([1]; DHT - 100 nM thiostrepton, Control shRNA): 2.04
- Fold Difference ([1]; DHT - 100 nM thiostrepton, FOXM1 shRNA): 1.62
- Fold Difference ([1]; DHT-10 nM thiostrepton, Control shRNA): 1.54
- Fold Difference ([1]; DHT-10 nM thiostrepton, FOXM1 shRNA): 1.34
- potency of thiostrepton on AR activity after decreasing FOXM1 expression ([1]; FOXM1 shRNA vs control, GT1-7, FIG. 3B): diminished the potency
- inhibition of AR transcriptional activity (luciferase) [1]: most potent; also recorded: nanomolar potency; also recorded: selectively inhibit AR activity
- inhibition of AR transcriptional activity (luciferase) [2]: not C2C12 cells

SMILES: C=C(NC(=O)C(=C)NC(=O)c1csc(C2=N[C@@H]3c4csc(n4)[C@H]4NC(=O)c5csc(n5)[C@H]([C@](C)(O)[C@@H](C)O)NC(=O)[C@H]5CSC(=N5)/C(=C/C)NC(=O)[C@H]([C@@H](C)O)NC(=O)c5csc(n5)[C@]3(CC2)NC(=O)[C@H](C)NC(=O)C(=C)NC(=O)C(=C)NC(=O)[C@H](C(C)C)N[C@@H]2C=Cc3c([C@H](C)O)cc(nc3[C@H]2O)C(=O)O[C@@H]4C)n1)C(N)=O [NSC285116, siomycin A]
- inhibition of AR transcriptional activity (luciferase) [1]: selectively inhibit AR activity
- inhibition of AR transcriptional activity (luciferase) [2]: not C2C12 cells
